# Test: Oral absorption test: concentration of hydrolyzed carbapenem compound (A) in plasma after oral administration
# Type: in vivo
# Settings: mice, 100 mg/kg orally, hydrolyzed carbapenem compound (A) by HPLC
# Procedure: The compound of the present invention (100 mg/kg, compound of Example 13) was orally administered to mice (3 per group) and the concentration of hydrolyzed carbapenem compound (A) in plasma was determined at 0.25, 0.5, 1.0, 2.0 and 3.0 hours later by HPLC.
# The compound of the present invention (100 mg/kg, compound of Example 15) was orally administered to mice (3 per group) and the concentration of hydrolyzed carbapenem compound (A) in plasma was determined at 0.25, 0.5, 1.0, 2.0 and 3.0 hours later by HPLC.
Average concentration in plasma (0.25 hr) [µg/mL],Average concentration in plasma (0.5 hr) [µg/mL],Average concentration in plasma (1.0 hr) [µg/mL],Average concentration in plasma (2.0 hr) [µg/mL],Average concentration in plasma (3.0 hr) [µg/mL],SMILES
9.5,4.8,1.9,0.6,0.2,CCC(=O)OCOC(=O)N1C[C@@H](SC2=C(C(=O)OCOC(=O)C(C)(C)C)N3C(=O)[C@H]([C@@H](C)O)[C@H]3[C@H]2C)C[C@H]1C(=O)N(C)C [Example 13]
8.6,10.1,4.8,1.4,0.3,"CC(C)C(=O)OCOC(=O)N1C[C@@H](SC2=C(C(=O)OCOC(=O)C(C)(C)C)N3C(=O)[C@H]([C@@H](C)O)[C@H]3[C@H]2C)C[C@H]1C(=O)N(C)C [Example 15, pivaloyloxymethyl (1R,5S,6S)-2-[(3S,5S)-(5-N,N-dimethylaminocarbonyl-1-isobutyryloxymethyloxycarbonyl)pyrrolidin-3-ylthio]-6-[(1R)-1-hydroxyethyl]-1-methylcarbapen-2-em-3-carboxylate]"
